Measurements taken from US20070264355A1, “BINARY COMPOSITIONS AND METHODS FOR STERILIZATION” (Binary, LLC, priority 2005, published 2007).
“Also recorded” adds a separate entry of the source.

What was measured:
Assay type in all cases: cell-based
[1] = system: Staphylococcus aureus (ATCC 6538); test: Microbicidal activity against Staphylococcus aureus (suspension test, surviving CFU)
Protocol: Bacterial suspensions, specifically Staphylococcus aureus (ATCC 6538) in this example, were prepared by the shake flask method to achieve late log to early stationary phase growth. Bacteria were grown 24 hours in trypticase soy broth (TSB) at 35° C. The cultures were centrifuged at 4,000 rpm for 10 minutes and the supernatants removed. The pellet was collected and washed twice with sterile 0.9% normal saline. The washed microorganisms were suspended and diluted with normal saline to a 3 McFarland standard, i.e., approximately 10^9 bacteria colony forming units (CFU) per ml. Actual colony counts are confirmed by serial dilutions (10^−1 to 10^−5 or 10^−6) plated on trypticase soy agar (TSA) and incubated overnight at 35° C. One hundred microliters of organisms from a stock of 10^7 CFU/ml were used to obtain an approximate final working target inoculum of 10^6 CFU. The microbicidal test is conducted in a vial containing 1.4 ml of final reaction mixture after neutralization.
(§1) Each solution was used alone for the individual controls. Organism suspensions were used to achieve a final target concentration of 2-3×10^6 CFU per ml. For the binary system treatments, sodium hypochlorite solution and hydrogen peroxide solution, non-acidified or acidified, were sequentially added to the microorganisms. Acidified hydrogen peroxide solution was obtained by the addition of 1.0% v/v of 0.001 N hydrochloride solution. After each addition, the resulting mixture was allowed to remain in contact with the organisms for a set amount of time at room temperature (about 22° C.), as listed in the Tables 1 and 2. At the end of the treatment time, the mixtures were neutralized with 200 to 500 microliters of thiosulfate solution (2.4%) to quench the activity of sodium hypochlorite and then treated with 100 to 200 microliters of a 1% catalase solution, containing a minimum of 100 units/ul, to quench the hydrogen peroxide activity. If needed, an appropriate volume of sterile saline was added to bring the final volume of reaction mixture to 1.4 ml after neutralization. Serial dilution plate counts were performed from the contents of each vial in sterile saline and inoculated onto TSA for quantitative culture. Plates were then incubated at 37° C. and counts taken at 24 hours.
After an additional 30 minutes, the binary system mixture was then neutralized using 2.4% thiosulfate followed by 1% catalase as described in the Methods Section.

[2] = system: Escherichia coli (ATCC 25922); test: Microbicidal activity against Escherichia coli (suspension test, surviving CFU); conditions: H2O2 88 mM 15 min; inoculum 1630000 CFU
From the text: as §1, with “hours. […]” for “hours.”

[3] = system: Bacillus subtilis (ATCC 19659) spores; test: Microbicidal activity against Bacillus subtilis spores (suspension test, surviving CFU)
From the text: as §1
Suspensions of Bacillus subtilis (ATCC 19659) containing 100% spores, as confirmed by microscopy, were obtained by washing the spun-down cells with 50% ethanol to eliminate the vegetative form. Starting inoculum of approximately 1-3×10^6 CFU was used as in Example 1.
[…] The binary system was neutralized 30 minutes after addition of hydrogen peroxide using 2.4% thiosulfate and 1% catalase as described in Example 1.

[4] = H2O2 0.35 mM 30 min, inoculum 2530000 CFU
[5] = H2O2 88 mM 5 min, inoculum 1600000 CFU
[6] = H2O2 88 mM 15 min, inoculum 1600000 CFU
[7] = H2O2 88 mM 30 min, inoculum 1600000 CFU
[8] = H2O2 294 mM 5 min, inoculum 1600000 CFU
[9] = H2O2 294 mM 15 min, inoculum 1600000 CFU
[10] = H2O2 294 mM 30 min, inoculum 1600000 CFU
[11] = H2O2 882 mM 5 min, inoculum 1600000 CFU
[12] = H2O2 882 mM 15 min, inoculum 1600000 CFU
[13] = H2O2 882 mM 30 min, inoculum 1600000 CFU
[14] = H2O2 2940 mM 5 min, inoculum 1600000 CFU
[15] = H2O2 2940 mM 15 min, inoculum 1600000 CFU
[16] = H2O2 2940 mM 30 min, inoculum 1600000 CFU
[17] = H2O2 8821 mM 5 min, inoculum 1600000 CFU
[18] = H2O2 8821 mM 15 min, inoculum 1600000 CFU
[19] = H2O2 8821 mM 30 min, inoculum 1600000 CFU
[20] = H2O2 35.25 mM 30 min, inoculum 1120000 CFU
[21] = H2O2 88 mM 60 min, inoculum 1865000 CFU
[22] = H2O2 294 mM 60 min, inoculum 1865000 CFU
[23] = H2O2 882 mM 60 min, inoculum 1865000 CFU
[24] = H2O2 2940 mM 60 min, inoculum 1865000 CFU
[25] = H2O2 8821 mM 60 min, inoculum 1865000 CFU

SMILES: OO [H2O2, hydrogen peroxide]
- Log 10 (CFU + 1) Survivors [1, 4]: 6.2
- Log Reduction [1, 4]: 0.2
- Total Viability (CFU) [1, 4]: 1764000 CFU
- Log 10 (CFU + 1) Survivors [1, 5]: 6.2
- Log Reduction [1, 5]: 0.0
- Total Viability (CFU) [1, 5]: 1694000 CFU
- Log 10 (CFU + 1) Survivors [1, 6]: 6.3
- Log Reduction [1, 6]: −0.1
- Total Viability (CFU) [1, 6]: 2044000 CFU
- Log 10 (CFU + 1) Survivors [1, 7]: 6.3
- Log Reduction [1, 7]: −0.1
- Total Viability (CFU) [1, 7]: 1792000 CFU
- Log 10 (CFU + 1) Survivors [1, 8]: 6.1
- Log Reduction [1, 8]: 0.1
- Total Viability (CFU) [1, 8]: 1288000 CFU
- Log 10 (CFU + 1) Survivors [1, 9]: 6.1
- Log Reduction [1, 9]: 0.1
- Total Viability (CFU) [1, 9]: 1190000 CFU
- Log 10 (CFU + 1) Survivors [1, 10]: 1.3
- Log Reduction [1, 10]: 4.9
- Total Viability (CFU) [1, 10]: 21 CFU
- Log 10 (CFU + 1) Survivors [1, 11]: 4.1
- Log Reduction [1, 11]: 2.1
- Total Viability (CFU) [1, 11]: 12040 CFU
- Log 10 (CFU + 1) Survivors [1, 12]: 0.0
- Log Reduction [1, 12]: 6.2
- Total Viability (CFU) [1, 12]: 0 CFU
- Log 10 (CFU + 1) Survivors [1, 13]: 0.0
- Log Reduction [1, 13]: 6.2
- Total Viability (CFU) [1, 13]: 0 CFU
- Log 10 (CFU + 1) Survivors [1, 14]: 0.0
- Log Reduction [1, 14]: 6.2
- Total Viability (CFU) [1, 14]: 0 CFU
- Log 10 (CFU + 1) Survivors [1, 15]: 0.0
- Log Reduction [1, 15]: 6.2
- Total Viability (CFU) [1, 15]: 0 CFU
- Log 10 (CFU + 1) Survivors [1, 16]: 0.0
- Log Reduction [1, 16]: 6.2
- Total Viability (CFU) [1, 16]: 0 CFU
- Log 10 (CFU + 1) Survivors [1, 17]: 0.0
- Log Reduction [1, 17]: 6.2
- Total Viability (CFU) [1, 17]: 0 CFU
- Log 10 (CFU + 1) Survivors [1, 18]: 0.0
- Log Reduction [1, 18]: 6.2
- Total Viability (CFU) [1, 18]: 0 CFU
- Log 10 (CFU + 1) Survivors [1, 19]: 0.0
- Log Reduction [1, 19]: 6.2
- Total Viability (CFU) [1, 19]: 0 CFU
- microbicidal activity (kill of inoculum) ([1]; highest concentration of hydrogen peroxide used in the binary system, tested alone): completely ineffective and produced no kill
- microbicidal activity (kill of inoculum) ([1]; hydrogen peroxide 88 mM, within 30 minutes): no microbicidal activity; also recorded: not microbicidal
- microbicidal activity (kill of inoculum) ([1]; hydrogen peroxide 8821 and 2940 mM, within 5 minutes, 6.2 log10 CFU inoculum): complete kill
- microbicidal activity (kill of inoculum) ([1]; hydrogen peroxide intermediate concentrations): partial kill
- Log 10 (CFU + 1) Survivors [2]: 5.8
- Log Reduction [2]: 0.4
- Total Viability (CFU) [2]: 588000 CFU
- Log 10 (CFU + 1) Survivors [3, 20]: 6.1
- Log Reduction [3, 20]: −0.1
- Total Viability (CFU) [3, 20]: 1358000 CFU
- Log 10 (CFU + 1) Survivors [3, 21]: 6.3
- Log Reduction [3, 21]: 0.0
- Total Viability (CFU) [3, 21]: 1974000 CFU
- Log 10 (CFU + 1) Survivors [3, 22]: 6.2
- Log Reduction [3, 22]: 0.1
- Total Viability (CFU) [3, 22]: 1484000 CFU
- Log 10 (CFU + 1) Survivors [3, 23]: 5.3
- Log Reduction [3, 23]: 1.0
- Total Viability (CFU) [3, 23]: 200200 CFU
- Log 10 (CFU + 1) Survivors [3, 24]: 2.8
- Log Reduction [3, 24]: 3.5
- Total Viability (CFU) [3, 24]: 588 CFU
- Log 10 (CFU + 1) Survivors [3, 25]: 0.0
- Log Reduction [3, 25]: 6.3
- Total Viability (CFU) [3, 25]: 0 CFU
- microbicidal activity (kill of inoculum) ([3]; hydrogen peroxide 8821 mM, within 60 minutes, 6.3 log10 CFU inoculum): complete kill
- microbicidal activity (kill of inoculum) ([3]; hydrogen peroxide 294 to 88 mM, within 60 minutes): no microbicidal activity
- microbicidal activity (kill of inoculum) ([3]; hydrogen peroxide 2940 and 882 mM, 60 minutes): partial kill
